Data as given in PMC8466300, “Investigating the Central Nervous System Disposition of Actinomycin D: Implementation and Evaluation of Cerebral Microdialysis and Brain Tissue Measurements Supported by UPLC-MS/MS Quantification” (Pharmaceutics, 2021).

Experiment: Reverse-phase UPLC retention relative to actinomycin D
Assay type: physicochemical
Conditions: Peptide BEH C18 300 Å, gradient 40–100% ACN + 0.1% FA, 60 °C
Method: The injected sample volume was 20 µL.
For chromatography optimization we tested reverse phase columns (C18 and C4) due to actinomycin D´s high lipophilicity. We used reverse phase material with a large pore width of 300 Å because large pore widths usually foster optimal mass transfer kinetics for macromolecules. Chromatographic peak shape and separation performed better on the C18 column. In accordance with the high lipophilicity of actinomycin D, a gradient from 40–100% eluent B was found optimal and yielded peaks with a width at baseline of 6 s (Figure 2).

7-amino actinomycin D
shift in reverse-phase retention relative to actinomycin D: large hydrophilic shift in retention time

Actinomycin C
shift in reverse-phase retention relative to actinomycin D: only a minimal lipophilic shift
